biological target: T1, 5-hydroxytryptamine receptor 2C (Homo sapiens, UniProt P28335); experiment: DRUGMATRIX: Serotonin (5-Hydroxytryptamine) 5-HT2C radioligand binding (ligand: [3H] Mesulergine); format: cell membranes, CHO-K1, Membrane; conditions: cho-k1; Not Active = under 50% inhibition at 10 µM
T1 sequence (P28335 whole entry): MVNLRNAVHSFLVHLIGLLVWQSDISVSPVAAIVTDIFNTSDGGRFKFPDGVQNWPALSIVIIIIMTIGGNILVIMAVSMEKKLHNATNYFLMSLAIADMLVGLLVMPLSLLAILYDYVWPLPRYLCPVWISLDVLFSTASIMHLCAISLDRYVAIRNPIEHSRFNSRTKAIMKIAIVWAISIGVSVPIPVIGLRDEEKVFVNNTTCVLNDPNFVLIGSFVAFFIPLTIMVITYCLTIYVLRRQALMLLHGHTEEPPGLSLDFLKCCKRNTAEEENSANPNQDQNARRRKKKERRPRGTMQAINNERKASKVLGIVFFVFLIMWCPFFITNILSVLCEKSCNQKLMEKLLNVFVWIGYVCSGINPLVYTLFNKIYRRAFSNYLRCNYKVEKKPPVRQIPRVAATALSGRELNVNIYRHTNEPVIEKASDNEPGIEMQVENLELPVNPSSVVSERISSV

Q: How did the IC50 turn out when `CC1CCC(NC(=O)N(CCCl)N=O)CC1` (stereo not given) [SEMUSTINE] was run?
A: Its IC50 is “Not Active”.

Q: How did the IC50 turn out when `O=C1C[C@@H]2OCC=C3CN4CC[C@]56c7ccccc7N1[C@H]5[C@H]2[C@H]3C[C@H]46` [STRYCHNINE] was run?
A: Its IC50 is “Not Active”.

Q: `C[N+](C)(C)CCOC(=O)CCC(=O)OCC[N+](C)(C)C.[Cl-].[Cl-]` [SUCCINYLCHOLINE CHLORIDE] was tested. Which IC50 did it give?
A: The IC50 was “Not Active”.

Q: Which IC50 does the source give for `Nc1ccc(S(=O)(=O)NC(=O)c2ccccc2)cc1` [SULFABENZAMIDE] here?
A: The IC50 was “Not Active”.

Q: Which IC50 does the source give for `CCCCCCCCNC(C)C(O)c1ccc(SC(C)C)cc1` (stereo not given) [SULOCTIDIL] here?
A: The IC50 was “Not Active”.

Q: How did the IC50 turn out when `O=c1[nH]c(=O)n(C2CCCO2)cc1F` (stereo not given) [TEGAFUR] was run?
A: The IC50 was “Not Active”.

Q: With `CC(=N)S` [THIOACETAMIDE] as the compound, how does the IC50 read?
A: The IC50 was “Not Active”.

biological target: T2, Substance-K receptor (Homo sapiens, UniProt P21452); format: cell membranes, CHO, Membrane; conditions: cho; also: in other assays of this panel Not Active means under 50% inhibition at 10 µM
T2 sequence (P21452 whole entry): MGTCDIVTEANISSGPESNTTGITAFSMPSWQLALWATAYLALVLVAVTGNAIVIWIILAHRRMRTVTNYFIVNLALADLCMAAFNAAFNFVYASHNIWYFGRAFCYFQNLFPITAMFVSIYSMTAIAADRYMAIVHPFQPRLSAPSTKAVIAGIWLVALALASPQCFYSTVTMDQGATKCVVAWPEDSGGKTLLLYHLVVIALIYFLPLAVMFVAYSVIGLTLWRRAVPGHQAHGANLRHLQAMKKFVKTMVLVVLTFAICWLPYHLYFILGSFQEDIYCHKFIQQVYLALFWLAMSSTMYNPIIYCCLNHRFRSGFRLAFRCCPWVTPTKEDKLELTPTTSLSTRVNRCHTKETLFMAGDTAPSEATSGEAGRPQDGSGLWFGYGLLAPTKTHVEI

Q: `CC1CCC(NC(=O)N(CCCl)N=O)CC1` (stereo not given) [SEMUSTINE] was tested. Which IC50 did it give?
A: The IC50 was “Not Active”.

Q: With `O=C1C[C@@H]2OCC=C3CN4CC[C@]56c7ccccc7N1[C@H]5[C@H]2[C@H]3C[C@H]46` [STRYCHNINE] as the compound, how does the IC50 read?
A: Its IC50 is “Not Active”.

Q: For `C[N+](C)(C)CCOC(=O)CCC(=O)OCC[N+](C)(C)C.[Cl-].[Cl-]` [SUCCINYLCHOLINE CHLORIDE], which IC50 is on record?
A: Its IC50 is “Not Active”.

Q: For `Nc1ccc(S(=O)(=O)NC(=O)c2ccccc2)cc1` [SULFABENZAMIDE], which IC50 is on record?
A: Its IC50 is “Not Active”.

Q: Which IC50 does the source give for `O=c1[nH]c(=O)n(C2CCCO2)cc1F` (stereo not given) [TEGAFUR] here?
A: Its IC50 is “Not Active”.

Q: How did the IC50 turn out when `CC(=N)S` [THIOACETAMIDE] was run?
A: The IC50 was “Not Active”.

same assay, conditions: read-out: IC50

Q: For `CCCCCCCCNC(C)C(O)c1ccc(SC(C)C)cc1` (stereo not given) [SULOCTIDIL], which IC50 is on record?
A: The IC50 was 6.79 µM.

same assay, conditions: read-out: Ki

Q: With `CCCCCCCCNC(C)C(O)c1ccc(SC(C)C)cc1` (stereo not given) [SULOCTIDIL] as the compound, how does the Ki read?
A: The Ki was 2.26 µM.

biological target: C-C chemokine receptor type 2 (Homo sapiens, UniProt P41597); format: cell membranes, Membrane; conditions: cho-k1; also: in other assays of this panel Not Active means under 50% inhibition at 10 µM
Sequence (P41597 whole entry): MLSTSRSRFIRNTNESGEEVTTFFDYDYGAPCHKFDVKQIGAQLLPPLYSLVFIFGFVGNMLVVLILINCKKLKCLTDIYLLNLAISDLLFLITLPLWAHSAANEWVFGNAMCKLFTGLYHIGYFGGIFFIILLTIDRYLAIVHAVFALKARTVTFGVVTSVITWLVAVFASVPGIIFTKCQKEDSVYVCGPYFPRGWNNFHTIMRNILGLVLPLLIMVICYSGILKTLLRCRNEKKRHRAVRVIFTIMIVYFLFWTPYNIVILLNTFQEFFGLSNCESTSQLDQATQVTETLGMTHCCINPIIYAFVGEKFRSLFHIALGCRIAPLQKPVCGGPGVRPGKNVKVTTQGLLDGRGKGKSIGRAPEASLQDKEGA

Q: With `CC1CCC(NC(=O)N(CCCl)N=O)CC1` (stereo not given) [SEMUSTINE] as the compound, how does the IC50 read?
A: Its IC50 is “Not Active”.

Q: Which IC50 does the source give for `O=C1C[C@@H]2OCC=C3CN4CC[C@]56c7ccccc7N1[C@H]5[C@H]2[C@H]3C[C@H]46` [STRYCHNINE] here?
A: The IC50 was “Not Active”.

Q: With `C[N+](C)(C)CCOC(=O)CCC(=O)OCC[N+](C)(C)C.[Cl-].[Cl-]` [SUCCINYLCHOLINE CHLORIDE] as the compound, how does the IC50 read?
A: The IC50 was “Not Active”.

Q: Which IC50 does the source give for `Nc1ccc(S(=O)(=O)NC(=O)c2ccccc2)cc1` [SULFABENZAMIDE] here?
A: Its IC50 is “Not Active”.

Q: How did the IC50 turn out when `CCCCCCCCNC(C)C(O)c1ccc(SC(C)C)cc1` (stereo not given) [SULOCTIDIL] was run?
A: The IC50 was “Not Active”.

Q: For `O=c1[nH]c(=O)n(C2CCCO2)cc1F` (stereo not given) [TEGAFUR], which IC50 is on record?
A: The IC50 was “Not Active”.

Q: Which IC50 does the source give for `CC(=N)S` [THIOACETAMIDE] here?
A: Its IC50 is “Not Active”.

biological target: T3, C-X-C chemokine receptor type 2 (Homo sapiens, UniProt P25025); format: cell membranes, Membrane; conditions: cho-k1; also: in other assays of this panel Not Active means under 50% inhibition at 10 µM
T3 sequence (P25025 whole entry): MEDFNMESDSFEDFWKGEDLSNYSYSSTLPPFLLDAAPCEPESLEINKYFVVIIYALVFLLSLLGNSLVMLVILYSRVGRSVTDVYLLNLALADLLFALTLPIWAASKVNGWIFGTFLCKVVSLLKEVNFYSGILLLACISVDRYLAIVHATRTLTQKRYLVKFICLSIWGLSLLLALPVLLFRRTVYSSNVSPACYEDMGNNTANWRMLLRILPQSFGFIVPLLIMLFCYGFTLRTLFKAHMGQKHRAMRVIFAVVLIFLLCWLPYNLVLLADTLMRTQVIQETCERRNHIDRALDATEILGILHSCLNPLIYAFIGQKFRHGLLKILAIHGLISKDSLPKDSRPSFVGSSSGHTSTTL

Q: For `CC1CCC(NC(=O)N(CCCl)N=O)CC1` (stereo not given) [SEMUSTINE], which IC50 is on record?
A: Its IC50 is “Not Active”.

Q: Which IC50 does the source give for `O=C1C[C@@H]2OCC=C3CN4CC[C@]56c7ccccc7N1[C@H]5[C@H]2[C@H]3C[C@H]46` [STRYCHNINE] here?
A: Its IC50 is “Not Active”.

Q: `C[N+](C)(C)CCOC(=O)CCC(=O)OCC[N+](C)(C)C.[Cl-].[Cl-]` [SUCCINYLCHOLINE CHLORIDE] was tested. Which IC50 did it give?
A: Its IC50 is “Not Active”.

Q: Which IC50 does the source give for `Nc1ccc(S(=O)(=O)NC(=O)c2ccccc2)cc1` [SULFABENZAMIDE] here?
A: The IC50 was “Not Active”.

Q: `CCCCCCCCNC(C)C(O)c1ccc(SC(C)C)cc1` (stereo not given) [SULOCTIDIL] was tested. Which IC50 did it give?
A: The IC50 was “Not Active”.

Q: With `O=c1[nH]c(=O)n(C2CCCO2)cc1F` (stereo not given) [TEGAFUR] as the compound, how does the IC50 read?
A: Its IC50 is “Not Active”.

Q: `CC(=N)S` [THIOACETAMIDE] was tested. Which IC50 did it give?
A: Its IC50 is “Not Active”.

biological target: T4, Cysteinyl leukotriene receptor 1 (Homo sapiens, UniProt Q9Y271); format: cell membranes, Membrane; conditions: cho-k1; also: in other assays of this panel Not Active means under 50% inhibition at 10 µM
T4 sequence (Q9Y271 whole entry): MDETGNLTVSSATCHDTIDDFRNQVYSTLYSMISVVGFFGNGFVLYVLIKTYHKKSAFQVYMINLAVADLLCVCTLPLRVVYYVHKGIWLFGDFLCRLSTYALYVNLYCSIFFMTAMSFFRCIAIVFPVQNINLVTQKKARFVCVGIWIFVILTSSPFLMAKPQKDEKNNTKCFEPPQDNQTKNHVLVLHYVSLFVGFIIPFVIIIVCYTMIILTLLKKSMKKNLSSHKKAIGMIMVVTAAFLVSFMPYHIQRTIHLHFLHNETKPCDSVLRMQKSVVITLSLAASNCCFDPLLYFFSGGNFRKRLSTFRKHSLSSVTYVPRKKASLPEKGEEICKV

Q: `CC1CCC(NC(=O)N(CCCl)N=O)CC1` (stereo not given) [SEMUSTINE] was tested. Which IC50 did it give?
A: The IC50 was “Not Active”.

Q: With `O=C1C[C@@H]2OCC=C3CN4CC[C@]56c7ccccc7N1[C@H]5[C@H]2[C@H]3C[C@H]46` [STRYCHNINE] as the compound, how does the IC50 read?
A: Its IC50 is “Not Active”.

Q: With `C[N+](C)(C)CCOC(=O)CCC(=O)OCC[N+](C)(C)C.[Cl-].[Cl-]` [SUCCINYLCHOLINE CHLORIDE] as the compound, how does the IC50 read?
A: The IC50 was “Not Active”.

Q: For `Nc1ccc(S(=O)(=O)NC(=O)c2ccccc2)cc1` [SULFABENZAMIDE], which IC50 is on record?
A: The IC50 was “Not Active”.

Q: `CCCCCCCCNC(C)C(O)c1ccc(SC(C)C)cc1` (stereo not given) [SULOCTIDIL] was tested. Which IC50 did it give?
A: Its IC50 is “Not Active”.

Q: With `O=c1[nH]c(=O)n(C2CCCO2)cc1F` (stereo not given) [TEGAFUR] as the compound, how does the IC50 read?
A: Its IC50 is “Not Active”.

Q: With `CC(=N)S` [THIOACETAMIDE] as the compound, how does the IC50 read?
A: Its IC50 is “Not Active”.

biological target: cGMP-specific 3',5'-cyclic phosphodiesterase (Homo sapiens, UniProt O76074); experiment: DRUGMATRIX: Phosphodiesterase PDE5 enzyme inhibition (substrate: [3H]cGMP + cGMP); format: tissue-based, Platelet; conditions: platelet; Not Active = under 50% inhibition at 10 µM

Q: How did the IC50 turn out when `CC1CCC(NC(=O)N(CCCl)N=O)CC1` (stereo not given) [SEMUSTINE] was run?
A: Its IC50 is “Not Active”.

Q: With `O=C1C[C@@H]2OCC=C3CN4CC[C@]56c7ccccc7N1[C@H]5[C@H]2[C@H]3C[C@H]46` [STRYCHNINE] as the compound, how does the IC50 read?
A: The IC50 was “Not Active”.

Q: `C[N+](C)(C)CCOC(=O)CCC(=O)OCC[N+](C)(C)C.[Cl-].[Cl-]` [SUCCINYLCHOLINE CHLORIDE] was tested. Which IC50 did it give?
A: The IC50 was “Not Active”.

Q: For `Nc1ccc(S(=O)(=O)NC(=O)c2ccccc2)cc1` [SULFABENZAMIDE], which IC50 is on record?
A: The IC50 was “Not Active”.

Q: `CCCCCCCCNC(C)C(O)c1ccc(SC(C)C)cc1` (stereo not given) [SULOCTIDIL] was tested. Which IC50 did it give?
A: The IC50 was “Not Active”.

Q: Which IC50 does the source give for `O=c1[nH]c(=O)n(C2CCCO2)cc1F` (stereo not given) [TEGAFUR] here?
A: The IC50 was “Not Active”.

Q: Which IC50 does the source give for `CC(=N)S` [THIOACETAMIDE] here?
A: Its IC50 is “Not Active”.

biological target: Acetylcholinesterase (Homo sapiens, UniProt P22303); experiment: DRUGMATRIX: Acetylcholinesterase enzyme inhibition (substrate: acetylthiocholine); format: cell-based, HEK293; conditions: hek293; Not Active = under 50% inhibition at 10 µM
Sequence (P22303 whole entry): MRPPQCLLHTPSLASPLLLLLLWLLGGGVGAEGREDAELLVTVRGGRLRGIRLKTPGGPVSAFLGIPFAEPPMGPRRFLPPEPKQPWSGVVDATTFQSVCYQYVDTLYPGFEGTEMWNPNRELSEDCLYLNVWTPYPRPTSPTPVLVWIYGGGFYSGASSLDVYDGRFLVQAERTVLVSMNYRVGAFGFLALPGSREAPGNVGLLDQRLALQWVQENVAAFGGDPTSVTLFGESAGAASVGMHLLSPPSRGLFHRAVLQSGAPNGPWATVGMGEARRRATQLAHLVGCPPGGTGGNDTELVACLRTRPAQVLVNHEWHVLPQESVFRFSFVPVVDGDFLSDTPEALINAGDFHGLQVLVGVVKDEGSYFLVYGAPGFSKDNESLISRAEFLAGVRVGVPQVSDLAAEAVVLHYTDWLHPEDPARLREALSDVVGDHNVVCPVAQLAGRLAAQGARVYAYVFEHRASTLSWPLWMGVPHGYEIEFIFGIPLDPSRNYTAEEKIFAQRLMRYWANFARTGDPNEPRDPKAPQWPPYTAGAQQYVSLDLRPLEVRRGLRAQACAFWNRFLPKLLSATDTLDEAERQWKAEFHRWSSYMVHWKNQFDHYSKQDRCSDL

Q: For `CC1CCC(NC(=O)N(CCCl)N=O)CC1` (stereo not given) [SEMUSTINE], which IC50 is on record?
A: Its IC50 is “Not Active”.

Q: For `O=C1C[C@@H]2OCC=C3CN4CC[C@]56c7ccccc7N1[C@H]5[C@H]2[C@H]3C[C@H]46` [STRYCHNINE], which IC50 is on record?
A: The IC50 was “Not Active”.

Q: Which IC50 does the source give for `C[N+](C)(C)CCOC(=O)CCC(=O)OCC[N+](C)(C)C.[Cl-].[Cl-]` [SUCCINYLCHOLINE CHLORIDE] here?
A: The IC50 was “Not Active”.

Q: With `Nc1ccc(S(=O)(=O)NC(=O)c2ccccc2)cc1` [SULFABENZAMIDE] as the compound, how does the IC50 read?
A: The IC50 was “Not Active”.

Q: For `CCCCCCCCNC(C)C(O)c1ccc(SC(C)C)cc1` (stereo not given) [SULOCTIDIL], which IC50 is on record?
A: Its IC50 is “Not Active”.

Q: How did the IC50 turn out when `O=c1[nH]c(=O)n(C2CCCO2)cc1F` (stereo not given) [TEGAFUR] was run?
A: Its IC50 is “Not Active”.

Q: `CC(=N)S` [THIOACETAMIDE] was tested. Which IC50 did it give?
A: The IC50 was “Not Active”.
